Results reported in patent publication US9156877B2, “17-hydroxy-17-pentafluorethyl-estra-4,9(10)-dien-11-benzylidene derivatives, methods for the production thereof and use thereof for treating diseases” (Bayer Intellectual Property GmbH, priority 2009, dated 2015).

Experiments:
[1] = biological target: T1, human progesterone receptor B (Homo sapiens, UniProt P06401); assay: Progesterone receptor-antagonistic action in stably transfected SK-N-MC cells with MMTV-LUC reporter (PR-B); assay type: cell-based; settings: antagonistic potency against 0.1 nmol/l promegestone, 24 hours, luciferase
T1 construct: expressed in transfected cells; host or cells: SK-N-MC human neuroblastoma cells, stably transfected with pRChPR-B-neo and pMMTV-LUC
T1 sequence (P06401 1-933): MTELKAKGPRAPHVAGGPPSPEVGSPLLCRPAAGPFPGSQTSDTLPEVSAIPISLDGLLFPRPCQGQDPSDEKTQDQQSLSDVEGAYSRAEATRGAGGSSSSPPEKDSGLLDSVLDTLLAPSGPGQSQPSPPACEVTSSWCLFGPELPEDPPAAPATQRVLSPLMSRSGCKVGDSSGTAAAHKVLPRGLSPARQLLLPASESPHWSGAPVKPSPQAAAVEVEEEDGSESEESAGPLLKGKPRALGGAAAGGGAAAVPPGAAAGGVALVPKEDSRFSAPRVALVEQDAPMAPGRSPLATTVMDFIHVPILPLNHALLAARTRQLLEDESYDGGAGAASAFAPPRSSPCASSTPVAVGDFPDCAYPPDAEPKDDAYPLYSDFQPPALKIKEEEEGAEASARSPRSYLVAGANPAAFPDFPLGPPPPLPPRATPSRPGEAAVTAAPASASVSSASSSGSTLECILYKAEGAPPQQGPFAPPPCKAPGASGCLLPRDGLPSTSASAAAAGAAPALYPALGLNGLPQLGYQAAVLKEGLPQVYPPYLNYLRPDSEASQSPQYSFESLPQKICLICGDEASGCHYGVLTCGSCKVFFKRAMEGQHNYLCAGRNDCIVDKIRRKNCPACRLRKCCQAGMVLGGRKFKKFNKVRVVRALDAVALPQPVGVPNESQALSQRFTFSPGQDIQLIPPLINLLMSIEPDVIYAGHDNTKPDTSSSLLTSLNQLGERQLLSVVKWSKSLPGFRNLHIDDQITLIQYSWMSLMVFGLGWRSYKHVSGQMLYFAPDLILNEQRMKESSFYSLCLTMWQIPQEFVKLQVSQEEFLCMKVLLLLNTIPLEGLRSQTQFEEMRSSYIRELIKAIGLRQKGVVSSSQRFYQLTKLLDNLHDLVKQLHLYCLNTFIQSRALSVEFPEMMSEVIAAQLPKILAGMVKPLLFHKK
Description: (§1) Determination of Progesterone Receptor-Antagonistic Action in Stable Transfectants of Human Neuroblastoma Cells (SK-N-MC Cells) with the Human Progesterone A or Progesterone B Receptor and an MN-LUC Reporter Construct
(§2) SK-N-MC cells (human neuroblastoma cells) which have been stably transfected with plasmids expressing the human progesterone receptor B (pRChPR-B-neo) or the human progesterone receptor A (pRChPR-A-neo) and a reporter construct (pMMTV-LUC) were incubated for 24 hours either in the absence (negative control) or in the presence of ascending amounts of the particular test compound (0.01 nmol/l, 0.1 nmol/l, 1 nmol/l, 10 nmol/l, 100 nmol/l and […]), in order to determine the agonistic efficacy. As a positive control of the reporter gene induction, the cells were treated with the synthetic gestagen promegestone (0.01 nmol/l, 0.1 nmol/l, 1 nmol/l, 10 nmol/l, 100 nmol/l and […]). To determine the antagonistic activity, the cells were treated with 0.1 nmol/l promegestone and additionally with ascending amounts of the particular test compound (0.01 nmol/l, 0.1 nmol/l, 1 nmol/l, 10 nmol/l, 100 nmol/l and […]). The activity of the reporter gene LUC (LUC=luciferase) was determined in the cell lysates and measured as RLU (relative light units). All measurements are reported as % efficacy and as EC50 and IC50 concentrations.

[2] = biological target: T2, human progesterone receptor A (Homo sapiens, UniProt P06401); assay: Progesterone receptor-antagonistic action in stably transfected SK-N-MC cells with MMTV-LUC reporter (PR-A); assay type: cell-based; settings: antagonistic potency against 0.1 nmol/l promegestone, 24 hours, luciferase
T2 construct: expressed in transfected cells; host or cells: SK-N-MC human neuroblastoma cells, stably transfected with pRChPR-A-neo and pMMTV-LUC
T2 sequence (P06401 1-769 isoform P06401-2): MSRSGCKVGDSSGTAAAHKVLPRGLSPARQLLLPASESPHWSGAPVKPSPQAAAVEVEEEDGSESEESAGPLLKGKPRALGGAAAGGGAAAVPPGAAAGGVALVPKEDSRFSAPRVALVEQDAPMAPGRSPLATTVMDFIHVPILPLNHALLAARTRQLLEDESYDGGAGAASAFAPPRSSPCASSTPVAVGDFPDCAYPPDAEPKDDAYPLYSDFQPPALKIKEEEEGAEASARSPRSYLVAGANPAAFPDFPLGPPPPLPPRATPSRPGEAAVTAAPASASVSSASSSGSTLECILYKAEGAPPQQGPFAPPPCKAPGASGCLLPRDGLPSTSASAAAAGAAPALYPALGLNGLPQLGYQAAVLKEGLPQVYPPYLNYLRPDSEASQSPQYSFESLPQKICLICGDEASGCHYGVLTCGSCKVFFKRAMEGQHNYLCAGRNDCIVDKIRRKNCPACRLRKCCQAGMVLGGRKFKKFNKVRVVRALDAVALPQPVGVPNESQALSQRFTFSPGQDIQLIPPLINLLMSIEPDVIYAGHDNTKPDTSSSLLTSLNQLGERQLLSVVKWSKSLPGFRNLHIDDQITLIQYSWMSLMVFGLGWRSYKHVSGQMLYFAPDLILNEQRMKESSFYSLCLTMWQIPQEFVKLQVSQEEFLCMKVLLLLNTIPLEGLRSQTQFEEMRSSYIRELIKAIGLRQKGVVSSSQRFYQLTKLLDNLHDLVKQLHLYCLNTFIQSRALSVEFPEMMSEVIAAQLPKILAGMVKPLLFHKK
Description: as §1, §2

Row | IC50 [1] [nM] | IC50 [2] [nM] | Structure (SMILES)
1 | 0.1 | 0.1 | C[C@]12C[C@H](c3ccc(/C=C/CNC(=O)Nc4ccc(F)cc4)cc3)C3=C4CCC(=O)C=C4CC[C@H]3[C@@H]1CC[C@@]2(O)C(F)(F)C(F)(F)F [Example 44, 1-(4-fluorophenyl)-3-{(E)-3-[4-((8S,11R,13S,14S,17S)-17-hydroxy-13-methyl-3-oxo-17-pentafluoroethyl-2,3,6,7,8,11,12,13,14,15,16,17-dodecahydro-1H-cyclopenta[a]phenanthren-11-yl)phenyl]allyl}urea]
2 | 0.1 | 0.1 | Cc1ccc(NC(=O)NC/C=C/c2ccc([C@H]3C[C@@]4(C)[C@@H](CC[C@@]4(O)C(F)(F)C(F)(F)F)[C@@H]4CCC5=CC(=O)CCC5=C43)cc2)cc1 [Example 45, 1-{(E)-3-[4-((8S,11R,13S,14S,17S)-17-hydroxy-13-methyl-3-oxo-17-pentafluoroethyl-2,3,6,7,8,11,12,13,14,15,16,17-dodecahydro-1H-cyclopenta[a]phenanthren-11-yl)phenyl]allyl}-3-p-tolylurea]
3 | 0.09 | 0.07 | C[C@]12C[C@H](c3ccc(/C=C/CNC(=O)NCc4ccccc4)cc3)C3=C4CCC(=O)C=C4CC[C@H]3[C@@H]1CC[C@@]2(O)C(F)(F)C(F)(F)F [Example 46, 1-benzyl-3-{(E)-3-[4-((8S,11R,13S,14S,17S)-17-hydroxy-13-methyl-3-oxo-17-pentafluoroethyl-2,3,6,7,8,11,12,13,14,15,16,17-dodecahydro-1H-cyclopenta[a]phenanthren-11-yl)phenyl]allyl}urea]
4 | 3 | 8 | C[C@]12C[C@H](c3ccc(/C=C/CNC(=O)NCCC(=O)O)cc3)C3=C4CCC(=O)C=C4CCC3C1CC[C@@]2(O)C(F)(F)C(F)(F)F (stereo partly drawn) [Example 50, (3-{(E)-3-[4-((8S,11R,13S,14S,17S)-17-hydroxy-13-methyl-3-oxo-17-pentafluoroethyl-2,3,6,7,8,11,12,13,14,15,16,17-dodecahydro-1H-cyclopenta[a]phenanthren-11-yl)phenyl]allyl}ureido)propionic acid]
5 | 0.1 | 0.1 | CCOC(=O)CNC(=O)NC/C=C/c1ccc([C@H]2C[C@@]3(C)C(CC[C@@]3(O)C(F)(F)C(F)(F)F)C3CCC4=CC(=O)CCC4=C32)cc1 (stereo partly drawn) [Example 51, 3-(3-{(E)-3-[4-((8S,11R,13S,14S,17S)-17-hydroxy-13-methyl-3-oxo-17-pentafluoroethyl-2,3,6,7,8,11,12,13,14,15,16,17-dodecahydro-1H-cyclopenta[a]phenanthren-11-yl)phenyl]allyl}ureido)acetic acid ethyl ester]

The remaining lines, values behind:

Row | Structure (SMILES) | IC50 [1] [nM] | IC50 [2] [nM]
6 | CC(C)(C)c1ccc(NC(=O)NC/C=C/c2ccc([C@H]3C[C@@]4(C)C(CC[C@@]4(O)C(F)(F)C(F)(F)F)C4CCC5=CC(=O)CCC5=C43)cc2)cc1 (stereo partly shown) [Example 47] | 0.3 | 0.8
7 | Cc1noc(C)c1NC(=O)NC/C=C/c1ccc([C@H]2C[C@@]3(C)[C@@H](CC[C@@]3(O)C(F)(F)C(F)(F)F)[C@@H]3CCC4=CC(=O)CCC4=C32)cc1 [Example 48, 1-(3,5-dimethylisoxazol-4-yl)-3-{(E)-3-[4-((8S,11R,13S,14S,17S)-17-hydroxy-13-methyl-3-oxo-17-pentafluoroethyl-2,3,6,7,8,11,12,13,14,15,16,17-dodecahydro-1H-cyclopenta[a]phenanthren-11-yl)phenyl]allyl}urea] | 0.03 | 0.09
8 | CCOC(=O)CCNC(=O)NC/C=C/c1ccc([C@H]2C[C@@]3(C)C(CC[C@@]3(O)C(F)(F)C(F)(F)F)C3CCC4=CC(=O)CCC4=C32)cc1 (stereo partly drawn) [Example 49, (3-{(E)-3-[4-((8S,11R,13S,14S,17S)-17-hydroxy-13-methyl-3-oxo-17-pentafluoroethyl-2,3,6,7,8,11,12,13,14,15,16,17-dodecahydro-1H-cyclopenta[a]phenanthren-11-yl)phenyl]allyl}ureido)propionic acid ethyl ester] | 0.3 | 0.1
